Measurements as given in patent US20250221953A1 (The University of Chicago, priority 2022, published 2025).

Columns and labels:
[1] = tested on: mouse primary CD8^+ T cells; test: In vitro function of activated mouse primary CD8+ T cells (cytokines, Ki-67, apoptosis, p-CREB); assay type: cell-based
Protocol: For experiments with live/dead criteria, cells were first stained with Fixable Viability Dyes (FVD) (Thermo Fisher Scientific) according to the manufacturer's instructions. Subsequent surface marker staining was performed in Flow Cytometry Staining Buffer (Thermo Fisher Scientific). Intracellular staining for flow panels containing nuclear proteins was performed using the eBioscience FoxP3/Transcription Factor Staining Buffer Set (Thermo Fisher Scientific) according to the manufacturer's instructions. For intracellular staining of cytoplasmic proteins, the Fixation/Permeabilization Solution Kit (BD Biosciences) was used according to the manufacturer's instructions. […] The cell pellets were washed again with FACS buffer, centrifuged at 300×g for 5 minutes, and incubated with antibodies in FACS buffer for 45 minutes-1 hour at room temperature. […] Treatment with sulfosuccinimidyl oleate (SSO) was performed by incubating cells with 100 μM SSO for 24 hours.

Mouse T cell = test: Second screen: IL-2 level of murine primary T cells; assay type: cell-based
Source text: Two preliminary screens were designed and performed.

## CCCCCC/C=C/CCCCCCCCCC(=O)O [TVA, trans-vaccenic acid]
[1]; 20 μM TVA 48 hours vs 24 hours then medium without TVA
  TVA wash-off assay (TVAc vs TVAw): effects are reversible
[1]; 8-Bromo-cAMP 0.01-100 μM or TVA 10-1000 μM, 24 hours
  p-CREB level in CD8+ T cells, increasing concentrations: dose-dependent manner
[1]; TVA 20 μM with SCFA agonists
  reversal of SCFA-dependent suppression on CD8+ T cells: able to reverse SCFA-dependent suppression on CD8^+ T cells
[1]; TVA treatment
  phosphorylation level of Lck (p-Lck) in CD8+ T cells: does not alter phosphorylation level of Lck
  phosphorylation of CREB in CD8+ T cells: promotes phosphorylation of CREB
[1]; TVA treatment in vitro
  TNF-α and IFN-γ expression of primary CD8+ T cells: increased expression of TNF-α and IFN-γ
[1]; acetate 12 hours, then TVA 20 μM 12 hours
  suppression of CD8+ T cells by pre-treatment with 20 mM acetate (acetate first): can be reversed by TVA at 20 μM
[1]; acetate at 20 mM, TNF-α
  TVA level sufficient to reverse suppression of CD8+ T cells by acetate: ≤ 2 µM
Mouse T cell
  Mouse T cell IL-2 level changes after treatment: 183.5%
Mouse T cell; 20 μM TVA (FIG. 17A)
  IL-2 production from mouse primary T cells: enhances IL-2 production
